Test results: patent publication US8071795B2, “HIF inhibitors” (Emory University, priority 2005, dated 2011)
pIC50: −log10 of the molar value.

Tests used:
[1] = tested on: topoisomerase II; assay: kinetoplast DNA decatenation assay; format: biochemical
Protocol: FIG. 15 illustrates that HIF inhibitor F2 (Psammaplin analogue) but not KCN1 inhibits topoisomerase II activity. Purified topo II activity with F2 or KCN1 was analyzed under normoxia using kDNA decatenation assay. To examine the activity, 1% agarose gel with ethidium bromide was used and it enabled to detect catenated kDNA and decatenated kDNA. In lanes 5 and 9, inhibition of topoisomerase II activity was detected as evidenced by the presence of catenated DNA.
Finally, an experiment focused on whether some of the HIF inhibitors might have an effect on topoisomerase function was performed. It has been reported in the literature that some HIF inhibitors may act via a topoisomerase-dependent mechanism (Rapisarda A et al 2004, Cancer Res 64-1475-82). KCN1 and psammaplin analogue F2 (FIG. 8) were tested and their inhibitory effect on topoisomerase II using a kinetoplast DNA decatenation assay (FIG. 15) was examined.

[2] = target: HIF-1/HRE pathway; assay: LN229-HRE-AP hypoxia-inducible alkaline phosphatase reporter bioassay; format: cell-based, human
Protocol: Genetically engineered LN229 cells (a human glioma cell line) which stably express the alkaline phosphatase reporter gene under the control of six copies of a hypoxia-responsive element was used to identify small-molecule inhibitors of the HIF-1/HRE pathway. The engineered LN229 cell line is disclosed in U.S. Provisional Patent Application No. 60/235,283, which is incorporated by reference in its entirety herein. Cells were seeded at 40,000 cells per well in 96-well plates. Compounds of interest with 2,2-dimethylbenzopyran motifs were added and the plates were incubated under hypoxia (1% O2, 5% CO2 and 94% N2) at 37° C. for 24 h. Cells were then washed with phosphate-buffered saline and incubated with p-nitrophenyl phosphate at 37° C. for 30 min. The reaction was terminated by adding 3 N NaOH and the plates were read for absorbance at 405 nm. The anti-HIF-1/HRE activity of each compound was quantified as the decrease of percentage of alkaline phosphatase (AP) activity compared to the untreated control cells. […]
To screen for small molecule HIF-1 pathway inhibitors, a cell-based assay was established by stably transfecting a glioma cell line with a hypoxia-inducible alkaline phosphatase (AlkPhos) expression vector (LN229-HRE-AP). Exposure of the cells to hypoxia (1% O2) induced reporter gene expression, which could be detected and quantitated by a […] reaction. […]

[3] = tested on: HIF-1α; assay: Western blot of total protein levels in LN229 cell extracts; format: cell-based, human
Protocol: (§1) FIG. 11 illustrates an analysis of specificity of KCN1. LN229 cells were pre-treated with KCN1 (25 uM) for 1 h and then put in 1% O2 for […]. Cell extracts were analyzed by Western blot for levels of total proteins (FIG. 11 (A)) and phospho-proteins by multiplex Western FIG. 11 (B)). It should be noted that a strong increase of HIF-1α levels under hypoxia is inhibited by KCN1.
(§2) The above extracts were further analyzed to detect changes in the activity states of key signal transduction proteins by multiplex Western (Kinexus). This method allows the simultaneous screening of 37 different phospho-proteins involved in key cell signaling pathways. […] KCN1 inhibits only HIF-1α under hypoxic conditions (FIG. 11 (C)).

[4] = tested on: phospho-proteins involved in key cell signaling pathways; assay: multiplex Western (Kinexus) of phospho-proteins in LN229 cell extracts; format: cell-based, human; details: 27 of 37 phospho-proteins
Protocol: as §1, §2

[5] = tested on: HIF-1 alpha mRNA; assay: Northern blot of HIF-1 alpha mRNA; format: cell-based; details: with or without KCN1 treatment
Protocol: To examine whether KCN1 might interfere with mRNA synthesis or stability Northern blots were performed.
(§3) To gain insight into the possible mechanism of action of KCN1 a number of experiments listed below were performed. First, an experiment focused on whether KCN1 might block HIF at the mRNA or protein level was performed. To examine whether KCN1 might interfere with HIF-1 alpha mRNA synthesis or stability, Northern blots were performed. […] Second, an experiment focused on whether KCN1 might interfere with the ability of HIF to translocate to the nucleus was performed by examining its location by microscopy in LN229 cells. Under hypoxia KCN1 inhibits HIF accumulation, confirming the Western blot results and no HIF is seen in the nucleus or cytoplasm.

[6] = tested on: HIF; assay: microscopy of HIF location and HRE-luciferase activity in LN229 cells; format: cell-based, human
Text: To examine whether KCN1 might interfere with the ability of HIF to translocate to the nucleus, its location was examined by microscopy in LN229 cells containing a stably integrated HRE-luciferase reporter construct. Under hypoxia KCN1 inhibits HIF accumulation and no HIF is seen in the nucleus or cytoplasm. […] Measurement of HIF-induced luciferase activity (lower panel) confirms that HIF is transcriptionally active in the presence of KCN1 in the COCl2 treated cells.
as §3
In addition, experiments focused on whether HIF present in the nucleus of the KCN1 and CoCl2 treated cells was transcriptionally active were performed. […]

[7] = tested on: Akt (Serine 473 phosphorylation), PI3K signaling pathway; assay: Akt phosphorylation in response to IGF1; format: cell-based; details: 1, 3, and 6 hrs
Protocol: In addition, experiments focused on whether HIF present in the nucleus of the KCN1 and CoCl2 treated cells was transcriptionally active were performed. […] Third, an experiment focused on whether KCN1 might interfere with HIF synthesis through the PI3 kinase/Akt/mTOR pathway that controls mRNA translation was performed. The effects of KCN1 on the phosphorylation of Akt in response to growth factor IGF1 (insulin growth factor 1) were examined. […] This finding might have therapeutic implications independently of the activities of KCN1 on HIF.

[8] = experimental LogP; format: physicochemical
Text: Four grams of KCN1 have been synthesized for initial PK and anti-tumor studies. FIG. 10 illustrates an illustrative embodiment of a method for forming KCN1.

[9] = PK study in U87MG-EGFRvIII brain tumor model, HPLC; format: in vivo, mice; details: iv. 35 mg/kg; 6, 18 and 24 hrs
Protocol: FIG. 18 illustrates a PK study of KCN1 in a brain tumor model. FIG. 18(A) illustrates MRI of U87MG-EGFRvIII grown in mice brain. FIG. 18(B) illustrates the kinetics of KCN1 accumulation in normal and tumoral brain after iv. injection at 35 mg/kg.
The BBB may constitute an obstacle to drug delivery. To examine whether KCN1 would reside in the brain over a longer period of time and whether it would accumulate in higher amounts in the tumor versus normal brain we carried out a preliminary PK experiment. Nude mice carrying U87MG-EGFRvIII tumors were injected iv. with KCN1 and sacrificed at 6, 18 and 24 hrs. KCN1 concentration in the brain tumor and contra-lateral normal brain was performed by HPLC.

[10] = tested on: HIF-dependent luciferase activity; assay: pharmacodynamic BLI study in LN229 HRE-luciferase glioma xenografts; format: in vivo, mouse
Protocol: FIG. 19 illustrates a pharmacodynamic study of KCN1 in nu/nu mouse bearing LN229HRE-luci-ferase gliomas. KCN1 (2 mg) dissolved in DMSO was injected in the right hind tumor, and DMSO control in the left hind tumor. The mouse was injected with D-luciferin and imaged by BLI before FIG. 19 (C) and 5 & 28 hrs after injection. It should be noted strong reduction in HIF-dependent luciferase activity in right hind tumor at 5 hrs and partial recovery of HIF signaling after 28 hrs. (n=2).
It is well appreciated that the efficacy of anti-cancer agents in rodents is an imprecise predictor of the success of these drugs in clinical trials. Therefore, evaluating the molecular and mechanistic end points of drug treatment is an important complementary approach to early pre-clinical studies. With this in mind, we sought to determine whether our lead HIF-1 pathway inhibitor (KCN1) can reduce HIF activity in a glioma xenograft model. In a pilot study, we used a mouse bearing 4 xenografts of LN229 cells containing a stable HIF responsive luciferase reporter (size-matched medium sized tumors in the back and small ones in the front). The HIF-dependent luciferase activity in the tumors was detected by non-invasive BLI. As expected, the larger hind tumors produced the strongest luciferase signal, likely due to the increase in the hypoxic volume. […]

[11] = tested on: LN229 glioma xenograft; assay: sc LN229 glioma xenograft growth; format: in vivo, nude mice
Protocol: FIG. 20 illustrates that KCN1 inhibits sc LN229 glioma xenograft growth. LN-229 (5×10^6) was implanted in both flanks of nude mice (8/group) and 1 week later started intraperitoneal injections of KCN1 (60 mg/kg; 5 days/week). FIG. 20(A) illustrates tumor volume over time as measured with a caliper.
(§4) KCN1 was formulated in Cremaphor/EtOH for mice delivery and determined empirically (i.e., without prior under-standing of its in vivo pharmacology) whether preliminary anti-tumorigenic effects could be observed. […] (up to 100 mg/kg) injected animals.

[12] = tolerability in injected animals; format: in vivo; details: it. and iv. (up to 100 mg/kg)
Protocol: as §4

| topo II activity ([1]; 100 uM) | SMILES | pIC50 ([2]; LN229-HRE-AP cells, hypoxia 1% O2) | inhibitory activity relative to initial HIF-inhibitor 85D5R ([2]; SAR, modifications in regions I and II) | HIF-1α protein level under hypoxia ([3]; LN229 cells, KCN1 25 uM, 1% O2, 5 hrs) | stabilization of HIF-1alpha under normoxia ([3]; induced by CoCl2, desferroxiamine or MG132) | effects on phospho-proteins with detectable phosphorylation [4] | HIF-1alpha mRNA levels [5] | luciferase activity of HRE-luciferase reporter ([6]; KCN1 and CoCl2 treated cells) | nuclear accumulation of HIF ([6]; LN229 cells, CoCl2 conditions) | IGF1-induced phosphorylation of Akt on Serine 473 [7] | phospho-Akt level [7] | topo II activity ([1]; 5-25 uM) | experimental LogP [8] | distribution between brain tumor and contra-lateral normal brain [9] | reduction of HIF-dependent luciferase activity in injected tumor ([10]; 2 mg in DMSO intratumoral, 5 hrs) | HIF-dependent luciferase activity in injected tumor ([10]; after 28 h) | weight of dissected tumors, fold less than control ([11]; 60 mg/kg intraperitoneal, 5 days/week, at termination) | tumor growth ([11]; Cremaphor/EtOH formulation) | toxicity [12] |
| --- | --- | --- | --- | --- | --- | --- | --- | --- | --- | --- | --- | --- | --- | --- | --- | --- | --- | --- | --- |
| inhibitory activity observed | COc1cc([C@@H]2c3cc4c(cc3[C@@H](O[C@@H]3O[C@@H]5CO[C@@H](C)O[C@H]5[C@H](O)[C@H]3O)[C@H]3COC(=O)[C@H]23)OCO4)cc(OC)c1O [etoposide, reference compound] |  |  |  |  |  |  |  |  |  |  |  |  |  |  |  |  |  |  |
|  | COc1ccc(S(=O)(=O)N(Cc2ccc3c(c2)C=CC(C)(C)O3)c2ccccc2)cc1OC [KCN1] | ~5.40 | improved acitivities | strong anti-HIF-1α activity is detected | is not inhibited | < 1.5 fold | remained constant | remained active | does not interfere with nuclear accumulation | not inhibited | increase in phospho-Akt is observed | did not inhibit | 3.9 | preferentially accumulates in and is retained in the brain tumor | > 90% | recovered | ~6 fold | strong and sustained inhibition of tumor growth | no apparent toxicity was observed |
